Laboratory results as given in patent publication US20240417743A1, “METHODS FOR IMPROVING GENOME ENGINEERING AND REGENERATION IN PLANT” (KWS SAAT SE & Co. KGaA, priority 2018, published 2024).

System: maize WUS2 promoter
Experiment: Maize WUS2 promoter tDT report construct co-bombardment
Format: cell-based
From the text: Homeobox domain transcriptional factor WUSCHEL (WUS) plays an important role in establishing and maintaining of shoot meristem. To identify boost factors that promote endogenous WUS2 expression, the maize WUSCHEL 2 promoter report construct (pAMK-ZmWUS2-tDT-noT) (SEQ ID NO: 43; FIG. 13) was used to illustrate maize WUS2 promoter activity. The maize WUS2 promoter (pZmWUS2) drove expression of the tDT report gene in this report construct (FIG. 13). The WUS2 promoter report construct was co-bombarded with boost factors individually in maize immature embryos and leaf segments.
Fresh leaf segments of 1-2 cm in length were prepared from the in vitro-cultured maize A188 seedling of 10-14 days old, and placed on the Osmotic medium with abaxial side up for 4 hours. For co-bombardment, two plasmids (100 ng of ZmWUS2 promoter report (FIG. 13) and 100 ng of boost construct, e.g. TaRKD4 (FIG. 5)) were premixed and coated onto 100 μg of gold particles size 0.4 μm. Immature embryo preparation, bombardment, and post-bombardment culturing were carried out as described in Example 1 and Example 2. Red fluorescence showing tDT expression was monitored using a fluorescent microscope started at 16 hours after bombardment.

[1] = A188 leaf segments, after bombardment

wheat RKD4: wheat RKD4 boost gene, expression construct pABM-BdEF1-TaRKD4 (SEQ ID NO: 28)
time at which tDT signal peaked [1]: around 44 hours
time at which tDT signal was detected [1]: around 36 hours
activation of maize WUS2 genes (immature embryos and leaf segments): strongly activate
tDT red fluorescent signals (immature embryos, 44 hours after bombardment, compared to WUS promoter reporter only): extremely strong red fluorescent signals
